# Legend:
# [1] = system: STAT1 in MDA-MB-468 cells; experiment: Activated STAT1 DNA binding assay (ELISA); assay type: cell-based, human; details: IFNγ 100 ng/ml
# Protocol: FIG. 19. YK5 enhances the nuclear content of IFNγ activated STAT1 and potentiates its binding to DNA. MDAMB-468 cells were treated with IFNγ (100 ng/ml) or co-treated with IFNγ (100 ng/ml) and YK5 (10 μM). (a) Activated STAT1 (pTyr701), was determined by immunofluorescent microscopy with a secondary antibody conjugated with FITC. Nuclear staining was performed with DAPI. (b) Activated STAT1 binding to STAT consensus binding site (5′-[…]-3′) was determined by an ELISA-based assay. Activated STAT1, contained in lysates from untreated (white bar), treated with YK5 (light grey bar), IFNγ (dark grey bars) or the combination of IFNγ and YK5 (black bars) cells, and bound to the oligonucleotide, was detected through use of an anti-STAT1 antibody. Assays were performed in the absence or presence of 20 pmol of competitor oligonucleotide that contains either a wild-type or a mutated STAT consensus binding site using IFNγ-treated cells (dark grey bars). […] Results are expressed as mean absorbance values (OD450 nm) with SEM.
# Activated STAT1 DNA binding assay. […] After HRP substrate addition, absorbance was read at 450 nm with a reference wavelength of 655 nm (Synergy4, Biotek, Winooski, Vt.). In this assay the absorbance is directly proportional to the quantity of DNA-bound transcription factor present in the sample. […] Results were expressed as mean absorbance values with SEM. […]
# Hsc70 and DJA2 = molecular target: T1, Hsc70 and DJA2 (Homo sapiens, UniProt P11142); experiment: Luciferase refolding by Hsc70 and DJA2; assay type: biochemical; details: 30° C.
# T1 construct: made in house
# Protocol: FIG. 6. YK5 inhibits core biochemical functions of Hsp70s and disrupts the Hsp90/Hsp70 interaction. a) Refolding of denatured luciferase by Hsc70 and DJA2 at 30° C. was measured for the indicated times in the presence of YK5 (100 μM) or vehicle (left), or at 60 min in the presence of indicated concentrations of YK5 (right). b) Hsc70 ATPase rates were measured for reactions at 30° C. with the indicated combinations of Hsc70 and co-chaperones in the presence of vehicle (DMSO) or YK5 (100 μM). ADP production was monitored by thin layer chromatography separation of radiolabeled ADP from ATP and phosphorimaging analysis (lower). […] Proteins isolated with anti-Hsp90 and Hsp70s antibodies (IP: Hsp90 or Hsp70), or present in the cell extract (Lysate) were analyzed by WB. […] Proteins were applied to a native gel and analyzed by immunoblotting. […]
# Hsc70 ATPase Activity and Luciferase Refolding. Human Hsc70, DJA1/DNAJA1, DJA2/DNAJA2 and Hsp110/Hsp105/HSPH1 were purified and analyzed. […] Samples at time points were terminated with 37.5 mM EDTA and analyzed by thin layer chromatography on polyethylene-imine cellulose (Mallinckrodt Baker) developed in 0.5 M LiCl and 0.5 M formic acid. The ADP produced was determined by image phosphor quantitation and the linear enzymatic rates (Vmax) were calculated by regression analysis. […]
# T1 sequence (P11142 whole entry): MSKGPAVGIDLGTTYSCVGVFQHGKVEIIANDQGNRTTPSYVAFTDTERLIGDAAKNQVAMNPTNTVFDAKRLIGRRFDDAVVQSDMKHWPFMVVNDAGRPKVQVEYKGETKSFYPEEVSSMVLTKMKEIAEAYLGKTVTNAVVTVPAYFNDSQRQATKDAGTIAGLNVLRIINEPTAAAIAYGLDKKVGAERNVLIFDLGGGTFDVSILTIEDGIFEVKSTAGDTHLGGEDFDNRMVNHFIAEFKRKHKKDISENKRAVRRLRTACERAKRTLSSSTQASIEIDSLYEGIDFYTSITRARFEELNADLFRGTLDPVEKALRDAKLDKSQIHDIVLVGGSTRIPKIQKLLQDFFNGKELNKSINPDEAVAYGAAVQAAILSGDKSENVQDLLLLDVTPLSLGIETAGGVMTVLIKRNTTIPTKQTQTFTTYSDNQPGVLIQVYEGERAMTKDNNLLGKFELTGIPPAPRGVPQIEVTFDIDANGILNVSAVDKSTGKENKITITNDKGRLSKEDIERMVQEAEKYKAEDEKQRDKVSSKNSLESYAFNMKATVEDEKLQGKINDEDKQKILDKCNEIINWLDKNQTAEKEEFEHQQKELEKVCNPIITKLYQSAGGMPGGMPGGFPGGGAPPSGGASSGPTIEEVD
compound,measurement,setting,value
"C=CC(=O)Nc1cc(N)nc(Sc2c(OC)nc(N3CCN(C)CC3)nc2OC)n1 [YK5, N-(6-amino-2-(4,6-dimethoxy-2-(4-methylpiperazin-1-yl)pyrimidin-5-ylthio)pyrimidin-4-yl)acrylamide]",DNA-binding efficacy of activated STAT1,[1],increased its DNA-binding efficacy
same,refolding of luciferase by purified Hsc70 and DJA2,Hsc70 and DJA2,dose-dependently inhibited the refolding of luciferase

# Source: patent publication US9567318B2, “Substituted pyrimidine compounds and uses thereof” (Memorial Sloan-Kettering Cancer Center, priority 2009, dated 2017)
